Assay [1] deals with T1, PRMT5 (Homo sapiens, UniProt O14744).
T1 construct: purchased Viva (custom protein)
Briefly: PRMT5 IC50 assay in the presence of MTA as cofactor. The following applies: for IC50: PRMT5, MTA as cofactor. Type of assay: biochemical. An outline of the steps:
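MTA-dependent versus SAM-dependent inhibition of human PRMT5 was assessed by IC50; conversion factors of 13.5 and 1.5 gave the corresponding Ki.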

The target of assay [2] is T1, PRMT5. Briefly: PRMT5 IC50 assay in the presence of SAM as cofactor. Type of assay: biochemical. A digest of the protocol: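 Potency against PRMT5 is compared across cofactor states, where IC50 equals Ki×1.5 with SAM present and Ki×13.5 with MTA present.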
Another assay relates to HAP1 MTAP-deleted. Description: SDMA in-cell western assay, HAP1 MTAP-deleted cell line. It is filed as cell-based. The following applies: for IC50: Homo sapiens, HAP1 MTAP-deleted cell line; for MTAP Intact/Deleted Ratio: IC50 ratio HAP1 MTAP-intact / HAP1 MTAP-deleted. An outline of the steps:
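IC50 from SDMA in-cell western; HAP1 line lacking MTAP (null), paired isogenically with MTAP-intact HAP1 expressing endogenous MTAP.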

In another assay the test system is HAP1 MTAP-intact. Briefly: SDMA in-cell western assay, HAP1 MTAP-intact cell line. The following applies: Homo sapiens. Type of assay: cell-based. A digest of the protocol: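 HAP1 isogenic pair: endogenous MTAP vs MTAP-null. Readout SDMA by in-cell western; IC50 per line. Ratio ≥3 fold = MTAP-selective.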
The target in assay [3] is T1, PRMT5. Description: PRMT5 IC50 assay with no cofactor. Type of assay: biochemical. A digest of the protocol: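 Three cofactor conditions are run: SAM-bound, MTA-bound and cofactor-free enzyme. IC50 is read from each; for the SAM and MTA arms it is divided by 1.5 and 13.5 respectively to give Ki.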
[4] abbreviates: ratio between the Ki in the presence of SAM and the Ki in the presence of MTA.
Setting [5] is: ratio between Ki in the presence of SAM and Ki in the presence of MTA.

This is an account of results in patent publication US11986471B2, “Compounds and methods of use” (Tango Therapeutics, Inc., priority 2018, dated 2024).

T1 sequence (O14744 whole entry): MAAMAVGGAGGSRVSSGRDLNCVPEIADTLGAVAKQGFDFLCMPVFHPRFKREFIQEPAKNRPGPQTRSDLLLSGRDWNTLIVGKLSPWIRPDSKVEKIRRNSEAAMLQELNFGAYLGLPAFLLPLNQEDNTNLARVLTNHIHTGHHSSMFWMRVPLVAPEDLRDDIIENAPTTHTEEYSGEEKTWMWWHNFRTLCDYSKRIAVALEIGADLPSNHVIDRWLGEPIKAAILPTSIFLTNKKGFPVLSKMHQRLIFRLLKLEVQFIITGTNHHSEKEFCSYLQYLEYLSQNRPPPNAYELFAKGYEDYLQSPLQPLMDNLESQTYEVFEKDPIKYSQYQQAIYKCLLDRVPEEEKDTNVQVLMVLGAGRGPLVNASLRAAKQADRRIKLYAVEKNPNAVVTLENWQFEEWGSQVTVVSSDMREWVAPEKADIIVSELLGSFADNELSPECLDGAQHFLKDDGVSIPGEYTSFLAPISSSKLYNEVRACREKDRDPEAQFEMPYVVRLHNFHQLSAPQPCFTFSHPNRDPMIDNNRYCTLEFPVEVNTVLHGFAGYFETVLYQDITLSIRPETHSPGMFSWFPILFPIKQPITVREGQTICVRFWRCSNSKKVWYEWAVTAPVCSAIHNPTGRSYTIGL
T1 sequence (Q9BQA1 whole entry partner): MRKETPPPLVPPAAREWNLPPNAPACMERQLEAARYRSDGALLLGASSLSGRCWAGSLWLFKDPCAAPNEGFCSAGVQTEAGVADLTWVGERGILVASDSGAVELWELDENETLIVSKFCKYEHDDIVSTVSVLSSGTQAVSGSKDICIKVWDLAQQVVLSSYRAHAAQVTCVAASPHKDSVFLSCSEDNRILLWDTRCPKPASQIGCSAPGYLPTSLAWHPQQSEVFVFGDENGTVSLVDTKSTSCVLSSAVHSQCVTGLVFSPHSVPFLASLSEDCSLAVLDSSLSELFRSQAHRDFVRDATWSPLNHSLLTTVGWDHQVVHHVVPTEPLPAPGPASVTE

`Cc1ncoc1COc1ccc2c(c1)CCN(C[C@@H](O)CNC(=O)c1cc(NC3CCC3)nc(N3CCN(C(C)C)CC3)c1)C2` [Compound 428, 2-(cyclobutylamino)-N-[(2S)-2-hydroxy-3-{6-[(4-methyl-1,3-oxazol-5-yl)methoxy]-1,2,3,4-tetrahydroisoquinolin-2-yl}propyl]-6-[4-(propan-2-yl)piperazin-1-yl]pyridine-4-carboxamide]: the IC50 was less than 50 nM at PRMT5 [1]; 50 to 500 nM at PRMT5 [2]; not below 10000 nM in the assay on HAP1 MTAP-deleted; not below 10000 nM with HAP1 MTAP-intact; 500 to 5000 nM at PRMT5 [3]. Besides, the “SAM/MTA Ratio” value on PRMT5 [1] (setting [4]) is “A (a Ki ratio greater than or equal to 10 fold between the Ki in the presence of SAM and the Ki in the presence of MTA)”. For the same compound, the “MTAP Intact/Deleted Ratio” value in the assay with HAP1 MTAP-deleted is “C* (an IC50 ratio of less than 3 fold between the IC50 in the HAP1 MTAP-intact cell line and the HAP1 MTAP-deleted cell line)”.

Regarding `CC(=O)N1CCC(Nc2cc(C(=O)NC[C@H](O)CN3CCc4cc(OCc5ocnc5C)ccc4C3)ccn2)C(C)C1` (stereo partly drawn) [Compound 637, 2-((1-acetyl-3-methylpiperidin-4-yl)amino)-N—((S)-2-hydroxy-3-(6-((4-methyloxazol-5-yl)methoxy)-3,4-dihydroisoquinolin-2(1H)-yl)propyl)isonicotinamide], the IC50 at PRMT5 [1] is 50 to 500 nM; on PRMT5 [2], 50 to 500 nM; in the assay with HAP1 MTAP-deleted it was 1000 to 10000 nM; in the assay with HAP1 MTAP-intact it was 1000 to 10000 nM; at PRMT5 [3] (read-out: No Co-factor IC50), not below 5000 nM. At PRMT5 [1] (setting [5]), the “SAM/MTA Ratio” value was “A (a Ki ratio greater than or equal to 10 fold between the Ki in the presence of SAM and the Ki in the presence of MTA)”. Besides, the “MTAP Intact/Deleted Ratio” value in the assay on HAP1 MTAP-deleted was “B* (an IC50 ratio greater than or equal to 3 fold but lower than 10 fold between the IC50 in the HAP1 MTAP-intact cell line and the HAP1 MTAP-deleted cell line)”.

In the case of `Cc1ncoc1COc1ccc2c(c1C)CCN(C[C@@H](O)CNC(=O)c1cc(NC3COC3)nc(N3CCN(C(=O)C4CC4)CC3)n1)C2` [Compound 414, 2-(4-cyclopropanecarbonylpiperazin-1-yl)-N-[(2S)-2-hydroxy-3-{5-methyl-6-[(4-methyl-1,3-oxazol-5-yl)methoxy]-1,2,3,4-tetrahydroisoquinolin-2-yl}propyl]-6-[(oxetan-3-yl)amino]pyrimidine-4-carboxamide], the IC50 is 50 to 500 nM at PRMT5 [1]; 50 to 500 nM at PRMT5 [2]; less than 1000 nM with HAP1 MTAP-deleted; not below 10000 nM in the assay with HAP1 MTAP-intact; not below 5000 nM on PRMT5 [3] (read-out: No Co-factor IC50). The “SAM/MTA Ratio” value at PRMT5 [1] (setting [5]) was “A (a Ki ratio greater than or equal to 10 fold between the Ki in the presence of SAM and the Ki in the presence of MTA)”. Moreover, the “MTAP Intact/Deleted Ratio” value in the assay with HAP1 MTAP-deleted is “A* (an IC50 ratio greater than or equal to 10 fold between the IC50 in the HAP1 MTAP-intact cell line and the HAP1 MTAP-deleted cell line)”.

Take `COCCN(C)c1nc(NC2COC2)cc(C(=O)NC[C@H](O)CN2CCc3cc(OCc4ocnc4C)ccc3C2)n1` [Compound 408, N-[(2S)-2-hydroxy-3-{6-[(4-methyl-1,3-oxazol-5-yl)methoxy]-1,2,3,4-tetrahydroisoquinolin-2-yl}propyl]-2-[(2-methoxyethyl)(methyl)amino]-6-[(oxetan-3-yl)amino]pyrimidine-4-carboxamide]: the IC50 at PRMT5 [1] is 50 to 500 nM; at PRMT5 [2] it was 50 to 500 nM; with HAP1 MTAP-deleted it was less than 1000 nM; in the assay on HAP1 MTAP-intact it was less than 1000 nM; on PRMT5 [3] (read-out: No Co-factor IC50), 500 to 5000 nM. For the same compound, the “SAM/MTA Ratio” value on PRMT5 [1] (setting [5]) is “A (a Ki ratio greater than or equal to 10 fold between the Ki in the presence of SAM and the Ki in the presence of MTA)”. The “MTAP Intact/Deleted Ratio” value in the assay with HAP1 MTAP-deleted is “C* (an IC50 ratio of less than 3 fold between the IC50 in the HAP1 MTAP-intact cell line and the HAP1 MTAP-deleted cell line)”.

Consider `O=C(NC[C@H](O)CN1CCc2cc(OCc3cnco3)ccc2C1)c1cc(NC2CCC2)ncc1Cl` [Compound 284, 5-chloro-2-(cyclobutylamino)-N-[(2S)-2-hydroxy-3-[6-(oxazol-5-ylmethoxy)-3N-dihydro-1H-isoquinolin-2-yl]propyl]pyridine-4-carboxamide], for which the 50% inhibitory concentration (IC50) was 50 to 500 nM at PRMT5 [1]; 500 to 5000 nM at PRMT5 [2]; less than 1000 nM with HAP1 MTAP-deleted; less than 1000 nM in the assay on HAP1 MTAP-intact; not below 5000 nM at PRMT5 [3] (read-out: No Co-factor IC50). Moreover, at PRMT5 [1] (setting [5]), the “SAM/MTA Ratio” value was “A (a Ki ratio greater than or equal to 10 fold between the Ki in the presence of SAM and the Ki in the presence of MTA)”. Moreover, in the assay with HAP1 MTAP-deleted, the “MTAP Intact/Deleted Ratio” value is “C* (an IC50 ratio of less than 3 fold between the IC50 in the HAP1 MTAP-intact cell line and the HAP1 MTAP-deleted cell line)”.

Consider `CC(C)C(=O)N1CCN(c2nc(NC3COC3)cc(C(=O)NC[C@H](O)CN3CCc4cc(OCc5cnco5)ccc4C3)n2)CC1` [Compound 313], for which the IC50 on PRMT5 [1] lay in the range of 50 to 500 nM; on PRMT5 [2], 50 to 500 nM; in the assay with HAP1 MTAP-deleted, 1000 to 10000 nM; with HAP1 MTAP-intact, 1000 to 10000 nM; at PRMT5 [3] (read-out: No Co-factor IC50) it was 500 to 5000 nM. Further, at PRMT5 [1] (setting [5]), the “SAM/MTA Ratio” value was “A (a Ki ratio greater than or equal to 10 fold between the Ki in the presence of SAM and the Ki in the presence of MTA)”. Besides, the “MTAP Intact/Deleted Ratio” value in the assay on HAP1 MTAP-deleted is “C* (an IC50 ratio of less than 3 fold between the IC50 in the HAP1 MTAP-intact cell line and the HAP1 MTAP-deleted cell line)”.

`O=C(NC[C@H](O)CN1CCc2c(ccc(OCc3cnco3)c2Cl)C1)c1cc(NC2CCC2)nc(N2CCNCC2)c1` [Compound 464, (S)—N-(3-(5-chloro-6-(oxazol-5-ylmethoxy)-3,4-dihydroisoquinolin-2(1H)-yl)-2-hydroxypropyl)-2-(cyclobutylamino)-6-(piperazin-1-yl)isonicotinamide]: the IC50 on PRMT5 [1] is 50 to 500 nM; at PRMT5 [2], 50 to 500 nM; with HAP1 MTAP-deleted, not below 10000 nM; in the assay on HAP1 MTAP-intact, not below 10000 nM; against PRMT5 [3], 500 to 5000 nM. The “SAM/MTA Ratio” value at PRMT5 [1] (setting [4]) is “A (a Ki ratio greater than or equal to 10 fold between the Ki in the presence of SAM and the Ki in the presence of MTA)”. Also, the “MTAP Intact/Deleted Ratio” value in the assay with HAP1 MTAP-deleted is “C* (an IC50 ratio of less than 3 fold between the IC50 in the HAP1 MTAP-intact cell line and the HAP1 MTAP-deleted cell line)”.

`O=C(NC[C@H](O)CN1CCc2cc(OCc3cnco3)ccc2C1)c1cc(NC2CCCC2)ncn1` [Compound 372, (S)-6-(cyclopentylamino)-N-(2-hydroxy-3-(6-(oxazol-5-ylmethoxy)-3,4-dihydroisoquinolin-2(1H)-yl)propyl)pyrimidine-4-carboxamide]: the half-maximal inhibitory concentration (IC50) at PRMT5 [1] is 50 to 500 nM; at PRMT5 [2] it was 500 to 5000 nM; with HAP1 MTAP-deleted it was less than 1000 nM; in the assay on HAP1 MTAP-intact, less than 1000 nM; on PRMT5 [3] (read-out: No Co-factor IC50) it was not below 5000 nM. The “SAM/MTA Ratio” value at PRMT5 [1] (setting [5]) was “A (a Ki ratio greater than or equal to 10 fold between the Ki in the presence of SAM and the Ki in the presence of MTA)”. Further, the “MTAP Intact/Deleted Ratio” value in the assay on HAP1 MTAP-deleted is “C* (an IC50 ratio of less than 3 fold between the IC50 in the HAP1 MTAP-intact cell line and the HAP1 MTAP-deleted cell line)”.

In the case of `CC(=O)N1[C@@H]2CC[C@H]1C[C@H](Nc1cc(C(=O)NC[C@H](O)CN3CCc4cc(OCc5ocnc5C)ccc4C3)ccn1)C2` [Compound 645, 2-(((1R,3r,5S)-8-acetyl-8-azabicyclo[3.2.1]octan-3-yl)amino)-N—((S)-2-hydroxy-3-(6-((4-methyloxazol-5-yl)methoxy)-3,4-dihydroisoquinolin-2(1H)-yl)propyl)isonicotinamide], the half-inhibitory concentration (IC50) at PRMT5 [1] is 50 to 500 nM; at PRMT5 [2], 50 to 500 nM; in the assay on HAP1 MTAP-deleted it was less than 1000 nM; in the assay on HAP1 MTAP-intact, not below 10000 nM; on PRMT5 [3] (read-out: No Co-factor IC50), 500 to 5000 nM. In addition, the “SAM/MTA Ratio” value on PRMT5 [1] (setting [5]) is “A (a Ki ratio greater than or equal to 10 fold between the Ki in the presence of SAM and the Ki in the presence of MTA)”. For the same compound, the “MTAP Intact/Deleted Ratio” value in the assay with HAP1 MTAP-deleted is “A* (an IC50 ratio greater than or equal to 10 fold between the IC50 in the HAP1 MTAP-intact cell line and the HAP1 MTAP-deleted cell line)”.

Take `Cc1nocc1COc1ccc2c(c1C)CCN(C[C@@H](O)CNC(=O)c1ccnc(NC3CCC3)c1)C2` [Compound 263, 2-(cyclobutylamino)-N-[(2S)-2-hydroxy-3-[5-methyl-6-[(3-methylisoxazol-4-yl)methoxy]-3,4-dihydro-1H-isoquinolin-2-yl]propyl]pyridine-4-carboxamide]: the half-maximal inhibitory concentration (IC50) on PRMT5 [1] was 500 to 5000 nM; at PRMT5 [2], 500 to 5000 nM; in the assay on HAP1 MTAP-deleted, not below 10000 nM; in the assay with HAP1 MTAP-intact, not below 10000 nM; at PRMT5 [3] (read-out: No Co-factor IC50), not below 5000 nM. For the same compound, at PRMT5 [1] (setting [5]), the “SAM/MTA Ratio” value is “A (a Ki ratio greater than or equal to 10 fold between the Ki in the presence of SAM and the Ki in the presence of MTA)”. In addition, the “MTAP Intact/Deleted Ratio” value in the assay on HAP1 MTAP-deleted is “C* (an IC50 ratio of less than 3 fold between the IC50 in the HAP1 MTAP-intact cell line and the HAP1 MTAP-deleted cell line)”.

On to `O=C(NC[C@H](O)CN1CCc2c(ccc(OCc3cnco3)c2Cl)C1)c1cc(NC2CCC2)nc(N2CCN(C(=O)C3CC3)CC2)c1` [Compound 571, (S)—N-(3-(5-chloro-6-(oxazol-5-ylmethoxy)-3N-dihydroisoquinolin-2(1H)-yl)-2-hydroxypropyl)-2-(cyclobutylamino)-6-(4-(cyclopropanecarbonyl)piperazin-1-yl)isonicotinamide], for which the half-inhibitory concentration (IC50) at PRMT5 [1] is 50 to 500 nM; at PRMT5 [2] it was 50 to 500 nM; with HAP1 MTAP-deleted, less than 1000 nM; with HAP1 MTAP-intact it was not below 10000 nM; on PRMT5 [3] it was 500 to 5000 nM. For the same compound, on PRMT5 [1] (setting [4]), the “SAM/MTA Ratio” value was “A (a Ki ratio greater than or equal to 10 fold between the Ki in the presence of SAM and the Ki in the presence of MTA)”. The “MTAP Intact/Deleted Ratio” value in the assay with HAP1 MTAP-deleted was “A* (an IC50 ratio greater than or equal to 10 fold between the IC50 in the HAP1 MTAP-intact cell line and the HAP1 MTAP-deleted cell line)”.
